Laboratory results reported in US9980943B2, “Methods of treating muscular dystrophy” (BOARD OF REGENTS OF THE NEVADA SYSTEM OF HIGHER EDUCATION, …, priority 2013, dated 2018).

Legend:
Assay type in all cases: cell-based, mouse
[1] = tested on: α7 integrin (LacZ reporter in α7βgal+/− myoblasts); test: Myoblast α7+/LacZ integrin FDG assay (Burkin assay in myoblasts, 96-well); details: α7+/LacZ myoblasts, 96-well
[2] = tested on: α7 integrin (LacZ reporter in α7+/LacZ myotubes); test: Myotube α7 integrin FDG assay (Burkin assay in myotubes, 96-well); details: myotubes
[3] = tested on: β-galactosidase in CMV-LacZ C2C12 myotubes; test: CMV-LacZ secondary screen in C2C12 myotubes (β-Gal stabilizing assay); details: for CMV-LACZ in Myotubes, signal relative to DMSO: C2C12 CMV-LacZ myotubes, fold relative to DMSO; for CMV-LACZ in Myotubes (β-galactosidase activity relative to DMSO): CMV-LacZ C2C12 myotubes, 96-well format
Outline: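 β-Gal level was the read-out, measured in a clonal C2C12 line expressing LacZ from a CMV promoter. Dose-response curves used six concentrations, 0.5 μM up to 40 μM, with duplicate points.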

Row | Compound | Burkin Assay in Myoblasts, value relative to DMSO ([1]; 0.5 uM) | Burkin Assay in Myoblasts, value relative to DMSO ([1]; 1 uM) | Burkin Assay in Myoblasts, value relative to DMSO ([1]; 5 uM) | Burkin Assay in Myoblasts, value relative to DMSO ([1]; 10 uM) | Burkin Assay in Myoblasts, value relative to DMSO ([1]; 20 uM) | Burkin Assay in Myoblasts, value relative to DMSO ([1]; 40 uM) | Burkin Assay in Myotubes (signal relative to DMSO) ([2]; 0.5 uM) | Burkin Assay in Myotubes (signal relative to DMSO) ([2]; 1 uM) | Burkin Assay in Myotubes (signal relative to DMSO) ([2]; 5 uM) | Burkin Assay in Myotubes (signal relative to DMSO) ([2]; 10 uM) | Burkin Assay in Myotubes (signal relative to DMSO) ([2]; 20 uM) | Burkin Assay in Myotubes (signal relative to DMSO) ([2]; 40 uM) | CMV-LACZ in Myotubes, signal relative to DMSO ([3]; 5 uM) | CMV-LACZ in Myotubes, signal relative to DMSO ([3]; 10 uM) | CMV-LACZ in Myotubes, signal relative to DMSO ([3]; 20 uM) | CMV-LACZ in Myotubes, signal relative to DMSO ([3]; 40 uM) | CMV-LACZ in Myotubes (β-galactosidase activity relative to DMSO) ([3]; 5 uM) | CMV-LACZ in Myotubes (β-galactosidase activity relative to DMSO) ([3]; 10 uM) | CMV-LACZ in Myotubes (β-galactosidase activity relative to DMSO) ([3]; 20 uM) | CMV-LACZ in Myotubes (β-galactosidase activity relative to DMSO) ([3]; 40 uM) | further results
1 | c1ccc(-c2cnc(-c3ccccc3)nc2)cc1 [MLS000532078-01] | 1.091 | 1.076 | 0.944 | 0.9431 | 1.09 | 1.077 | 1.0727 | 1.078 | 1.239 | 1.114 | 1.078 | 1.043 | 0.791 | 0.8914 | 0.9443 | 0.8623 |  |  |  |  | 
2 | CCOc1ccc(-n2c(C)c(C(=O)O)c3cc(OC)ccc32)cc1 [MLS001194551-01] | 1.096 | 1.205 | 1.115 | 1.297 | 1.176 | 1.392 | 1.0169 | 1.01 | 1.043 | 1.094 | 1.209 | 1.281 | 0.8273 | 0.9459 | 1.047 | 0.7809 |  |  |  |  | 
3 | CCS(=O)(=O)N1CCN(c2ccc([N+](=O)[O-])c(NCC3CCCO3)c2)CC1 (stereo not shown) [MLS000693370-01] |  |  |  |  |  |  |  |  |  |  |  |  |  |  |  |  | 0.9783 | 0.9621 | 0.9947 | 1.1136 | fold induction at 0.5 µM ([1]; Mus musculus, Myoblast, 48 h, 0.5 uM, read-out: Burkin Assay in Myoblasts, value relative to DMSO): 0.864; fold induction at 1 µM ([1]; Mus musculus, Myoblast, 48 h, 1 uM, read-out: Burkin Assay in Myoblasts, value relative to DMSO): 0.8; fold induction at 5 µM ([1]; Mus musculus, Myoblast, 48 h, 5 uM, read-out: Burkin Assay in Myoblasts, value relative to DMSO): 0.887; fold induction at 10 µM ([1]; Mus musculus, Myoblast, 48 h, 10 uM, read-out: Burkin Assay in Myoblasts, value relative to DMSO): 1.06; fold induction at 20 µM ([1]; Mus musculus, Myoblast, 48 h, 20 uM, read-out: Burkin Assay in Myoblasts, value relative to DMSO): 0.951; fold induction at 40 µM ([1]; Mus musculus, Myoblast, 48 h, 40 uM, read-out: Burkin Assay in Myoblasts, value relative to DMSO): 0.937; fold induction at 0.5 µM ([2]; Mus musculus, Myotube, 0.5 uM, read-out: Burkin Assay in Myotubes (signal relative to DMSO)): 1.11; fold induction at 1 µM ([2]; Mus musculus, Myotube, 1 uM, read-out: Burkin Assay in Myotubes (signal relative to DMSO)): 1.13; fold induction at 5 µM ([2]; Mus musculus, Myotube, 5 uM, read-out: Burkin Assay in Myotubes (signal relative to DMSO)): 1.16; fold induction at 10 µM ([2]; Mus musculus, Myotube, 10 uM, read-out: Burkin Assay in Myotubes (signal relative to DMSO)): 1.28; fold induction at 20 µM ([2]; Mus musculus, Myotube, 20 uM, read-out: Burkin Assay in Myotubes (signal relative to DMSO)): 1.15; fold induction at 40 µM ([2]; Mus musculus, Myotube, 40 uM, read-out: Burkin Assay in Myotubes (signal relative to DMSO)): 1.25
4 | O=C(Cn1cccc1C(=O)c1ccccc1)NCCCc1ccccc1 [MLS001110618-01] |  |  |  |  |  |  |  |  |  |  |  |  | 0.8954 | 0.9336 | 1.0555 | 0.4765 |  |  |  |  | Burkin Assay in Myoblasts, signal relative to DMSO ([1]; 0.5 uM): 0.9525; Burkin Assay in Myoblasts, signal relative to DMSO ([1]; 1 uM): 1.03; Burkin Assay in Myoblasts, signal relative to DMSO ([1]; 5 uM): 0.9228; Burkin Assay in Myoblasts, signal relative to DMSO ([1]; 10 uM): 1.005; Burkin Assay in Myoblasts, signal relative to DMSO ([1]; 20 uM): 0.9713; Burkin Assay in Myoblasts, signal relative to DMSO ([1]; 40 uM): 1.083; Burkin Assay in Myotubes, α7 integrin LacZ reporter signal relative to DMSO ([2]; 0.5 uM): 0.9526; Burkin Assay in Myotubes, α7 integrin LacZ reporter signal relative to DMSO ([2]; 1 uM): 1.067; Burkin Assay in Myotubes, α7 integrin LacZ reporter signal relative to DMSO ([2]; 5 uM): 1.114; Burkin Assay in Myotubes, α7 integrin LacZ reporter signal relative to DMSO ([2]; 10 uM): 1.252; Burkin Assay in Myotubes, α7 integrin LacZ reporter signal relative to DMSO ([2]; 20 uM): 1.0381; Burkin Assay in Myotubes, α7 integrin LacZ reporter signal relative to DMSO ([2]; 40 uM): 0.9463
5 | Cc1nnc(NC(=O)CSc2nnc(CCNC(=O)c3ccccc3F)n2C)s1 [MLS001217045-01] | 0.881 | 0.9697 | 1.087 | 1.112 | 1.057 | 1.109 | 1.001 | 1.156 | 0.94 | 1.154 | 1.115 | 1.051 |  |  |  |  | 0.9613 | 0.9821 | 0.9272 | 0.9127 | 
6 | Cc1ccc(N(CCC(=O)O)S(=O)(=O)c2cccc(C(F)(F)F)c2)cc1 [MLS000775793-01] | 1.103 | 1.076 | 1.109 | 1.076 | 0.9292 | 0.9895 | 0.9391 | 0.8833 | 0.8722 | 0.6224 | 0.9965 | 0.9508 | 0.855 | 1.012 | 0.9323 | 1.021 |  |  |  |  | 
7 | CN(C)S(=O)(=O)c1ccc(C(=O)Nc2nc3ccccc3[nH]2)cc1 [MLS000774940-01] | 0.9309 | 0.8928 | 1.095 | 1.043 | 0.858 | 0.7761 | 0.9469 | 0.9777 | 1.01 | 0.9908 | 1.084 | 0.878 |  |  |  |  | 0.954 | 0.8604 | 1.171 | 1.005 | 
